From PubChem BioAssay (NCI)
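Growth conditions: 96-well plates. Treatment: test compound, 48 hours, 5 concentrations. Analysis: linear interpolation between bracketing concentrations; unreached endpoints set to highest concentration. GI50 is the concentration that inhibits growth by half. At the TGI there is no net growth.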

Tests used:
Experiment in all cases: growth of human tumour cells (NCI), 48 h
[1] = system: PC-3 prostate
[2] = system: SK-MEL-5 melanoma
[3] = system: COLO 205 colon
[4] = system: UO-31 renal
[5] = system: HT29 colon
[6] = system: MCF7 breast
[7] = system: CCRF-CEM leukemia
[8] = system: TK-10 renal
[9] = system: OVCAR-3 ovarian
[10] = system: MOLT-4 leukemia
[11] = system: UACC-257 melanoma
[12] = system: DU-145 prostate
[13] = system: OVCAR-4 ovarian
[14] = system: ACHN renal
[15] = system: HS 578T breast
[16] = system: NCI-H460 lung
[17] = system: SNB-75 CNS
[18] = system: M14 melanoma
[19] = system: KM12 colon
[20] = system: LOX IMVI melanoma
[21] = system: A498 renal
[22] = system: HCC-2998 colon
[23] = system: A549 NSCLC
[24] = system: MDA-MB-231 breast
[25] = system: OVCAR-8 ovarian
[26] = system: HCT-15 colon
[27] = system: NCI-H23 lung
[28] = system: NCI/ADR-RES ovarian
[29] = system: HOP-62 NSCLC
[30] = system: UACC-62 melanoma
[31] = system: HL-60(TB) leukemia
[32] = system: HCT-116 colon
[33] = system: SW-620 colon
[34] = system: SN12C renal
[35] = system: SK-OV-3 ovarian
[36] = system: NCI-H522 lung
[37] = system: SF-268 CNS
[38] = system: OVCAR-5 ovarian
[39] = system: SK-MEL-2 melanoma
[40] = system: HOP-92 NSCLC
[41] = system: IGROV1 ovarian
[42] = system: MALME-3M melanoma
[43] = system: RXF 393 renal
[44] = system: EKVX NSCLC
[45] = system: 786-0 renal
[46] = system: U251 CNS
[47] = system: RPMI-8226 leukemia
[48] = system: T-47D breast
[49] = system: SF-539 CNS
[50] = system: BT-549 breast
[51] = system: SNB-19 CNS
[52] = system: K-562 leukemia
[53] = system: NCI-H226 lung
[54] = system: SR leukemia
[55] = system: SF-295 CNS
[56] = system: SK-MEL-28 melanoma
[57] = system: CAKI-1 renal
[58] = system: MDA-MB-435

## O=C1/C=C/[C@@H](O)[C@@H]2C[C@@H](O)C[C@H]2/C=C/CCC[C@H](CCc2ccccc2)O1
[1]
  GI50: 44.4 nM
  TGI: 24800 nM
[2]
  GI50: < 10 nM
  TGI: 16.8 nM
[3]
  GI50: 19.7 nM
  TGI: 36.9 nM
[4]
  GI50: 31.7 nM
  TGI: 13400 nM
[5]
  GI50: 31.5 nM
  TGI: 470 nM
[6]
  GI50: 23.4 nM
  TGI: 55.1 nM
[7]
  GI50: 39.1 nM
  TGI: > 59400 nM
[8]
  GI50: 34.8 nM
  TGI: 206 nM
[9]
  GI50: 25.4 nM
  TGI: 61.1 nM
[10]
  GI50: 36 nM
[11]
  GI50: 37.5 nM
  TGI: 21700 nM
[12]
  GI50: 49.9 nM
  TGI: > 100000 nM
[13]
  GI50: 37.3 nM
  TGI: 9480 nM
[14]
  GI50: 37.1 nM
  TGI: > 100000 nM
[15]
  GI50: < 10 nM
  TGI: 21700 nM
[16]
  GI50: 38.9 nM
  TGI: 15700 nM
[17]
  GI50: < 12.4 nM
  TGI: 33800 nM
[18]
  GI50: 26.4 nM
  TGI: 10700 nM
[19]
  GI50: < 10 nM
  TGI: 26.3 nM
[20]
  GI50: 21.1 nM
  TGI: 48 nM
[21]
  GI50: < 11.8 nM
  TGI: 40.9 nM
[22]
  GI50: 29.6 nM
  TGI: 994 nM
[23]
  GI50: 40.8 nM
  TGI: > 100000 nM
[24]
  GI50: 20.4 nM
  TGI: 42.7 nM
[25]
  GI50: 29.4 nM
  TGI: 12700 nM
[26]
  GI50: 34.3 nM
  TGI: 13000 nM
[27]
  GI50: 33.4 nM
  TGI: 285 nM
[28]
  GI50: 28.9 nM
  TGI: 823 nM
[29]
  GI50: 37.1 nM
  TGI: 20500 nM
[30]
  GI50: 46.7 nM
  TGI: 9000 nM
[31]
  GI50: 30.7 nM
  TGI: 128 nM
[32]
  GI50: 23.1 nM
  TGI: 54.9 nM
[33]
  GI50: 28.7 nM
  TGI: 84.7 nM
[34]
  GI50: 37.3 nM
  TGI: 14100 nM
[35]
  GI50: 34.3 nM
  TGI: 27000 nM
[36]
  GI50: 41.2 nM
  TGI: 200 nM
[37]
  GI50: 22.9 nM
  TGI: 7380 nM
[38]
  GI50: 57.3 nM
  TGI: > 100000 nM
[39]
  GI50: 31.8 nM
  TGI: 100 nM
[40]
  GI50: 31 nM
  TGI: 396 nM
[41]
  GI50: 40.2 nM
  TGI: 13200 nM
[42]
  GI50: 23.1 nM
  TGI: 85.4 nM
[43]
  GI50: < 10 nM
  TGI: < 21.2 nM
[44]
  GI50: 36.9 nM
  TGI: 14600 nM
[45]
  GI50: 12.5 nM
  TGI: 45.3 nM
[46]
  GI50: 40.6 nM
  TGI: 30100 nM
[47]
  GI50: 41.4 nM
  TGI: 5310 nM
[48]
  GI50: 48.3 nM
  TGI: 30700 nM
[49]
  GI50: 53.2 nM
  TGI: > 66500 nM
[50]
  GI50: 48.5 nM
  TGI: 14300 nM
[51]
  GI50: 51.4 nM
  TGI: > 88100 nM
[52]
  GI50: 38.4 nM
  TGI: 22700 nM
[53]
  GI50: 17.9 nM
  TGI: 74.8 nM
[54]
  GI50: 35 nM
[55]
  GI50: 38 nM
  TGI: > 50000 nM
[56]
  GI50: < 10 nM
  TGI: 45.6 nM
[57]
  GI50: 36.1 nM
  TGI: 3650 nM
[58]
  GI50: 36.5 nM
  TGI: 14000 nM

## COc1ccc(/C=C2\COc3ccc(O)c(O)c3C2=O)cc1
[1]
  GI50: 741 nM
  TGI: 23600 nM
[2]
  GI50: 329 nM
  TGI: 1250 nM
[3]
  GI50: 3150 nM
  TGI: 10800 nM
[4]
  GI50: 606 nM
  TGI: 1970 nM
[5]
  GI50: 3270 nM
  TGI: 19600 nM
[6]
  GI50: 464 nM
  TGI: > 100000 nM
[7]
  GI50: 333 nM
  TGI: 9820 nM
[8]
  GI50: 1570 nM
  TGI: > 27100 nM
[9]
  GI50: 511 nM
  TGI: 4570 nM
[10]
  GI50: 376 nM
  TGI: 20400 nM
[11]
  GI50: 1470 nM
  TGI: 8970 nM
[12]
  GI50: 1080 nM
  TGI: > 31200 nM
[13]
  GI50: 2380 nM
  TGI: > 33200 nM
[14]
  GI50: 637 nM
  TGI: 2000 nM
[15]
  GI50: 422 nM
  TGI: > 100000 nM
[16]
  GI50: 2460 nM
  TGI: 7940 nM
[17]
  GI50: 572 nM
  TGI: > 100000 nM
[18]
  GI50: 308 nM
  TGI: > 48200 nM
[19]
  GI50: 924 nM
  TGI: 3950 nM
[20]
  GI50: 369 nM
  TGI: 1520 nM
[21]
  GI50: 1000 nM
  TGI: 5550 nM
[22]
  GI50: 2450 nM
  TGI: 6280 nM
[23]
  GI50: 2550 nM
  TGI: 16200 nM
[24]
  GI50: 420 nM
  TGI: 3110 nM
[25]
  GI50: 458 nM
  TGI: 18700 nM
[26]
  GI50: 492 nM
  TGI: 2740 nM
[27]
  GI50: 2890 nM
  TGI: 14900 nM
[28]
  GI50: 329 nM
  TGI: 35700 nM
[29]
  GI50: 2240 nM
  TGI: 16200 nM
[30]
  GI50: 513 nM
  TGI: 2410 nM
[31]
  GI50: 334 nM
  TGI: 2090 nM
[32]
  GI50: 2000 nM
  TGI: 6850 nM
[33]
  GI50: 1310 nM
  TGI: 4820 nM
[34]
  GI50: 391 nM
  TGI: 2530 nM
[35]
  GI50: 923 nM
  TGI: > 100000 nM
[36]
  GI50: 159 nM
  TGI: 402 nM
[37]
  GI50: 1340 nM
  TGI: 6580 nM
[38]
  GI50: 2190 nM
  TGI: 5850 nM
[39]
  GI50: 517 nM
  TGI: 26900 nM
[40]
  GI50: 1140 nM
  TGI: 6100 nM
[41]
  GI50: 522 nM
  TGI: 2490 nM
[42]
  GI50: 751 nM
  TGI: 2690 nM
[43]
  GI50: 440 nM
  TGI: 1310 nM
[44]
  GI50: 2470 nM
  TGI: > 61300 nM
[45]
  GI50: 708 nM
  TGI: 5270 nM
[46]
  GI50: 1310 nM
  TGI: 6070 nM
[47]
  GI50: 317 nM
  TGI: 1200 nM
[48]
  GI50: 1170 nM
  TGI: 4710 nM
[49]
  GI50: 325 nM
  TGI: 1170 nM
[50]
  GI50: 511 nM
  TGI: 4850 nM
[51]
  GI50: 2980 nM
  TGI: > 100000 nM
[52]
  GI50: 330 nM
  TGI: > 100000 nM
[53]
  GI50: 2370 nM
  TGI: 6900 nM
[54]
  GI50: 403 nM
  TGI: > 100000 nM
[55]
  GI50: 4620 nM
  TGI: > 100000 nM
[56]
  GI50: 1150 nM
  TGI: 7470 nM
[57]
  GI50: 951 nM
  TGI: 4230 nM
[58]
  GI50: 257 nM
  TGI: 984 nM
